Data reported in US10414734B2, “5-hydroxyalkylbenzimidazoles as mIDH1 inhibitors” (BAYER PHARMA AKTIENGESELLSCHAFT, priority 2015, dated 2019).
pIC50: −log10 of the molar value.

Target: IDH1 R132H enzyme (Homo sapiens (Human), UniProt O75874, R132H)
Experiment: Mutant IDH1 R132H biochemical assay
Details: luminescent NADPH consumption readout; 1.5 nM enzyme, 1 μM NADPH, 250 μM α-KG, 30 min, 32° C.
Method: Mutant IDH1 R132H Biochemical Assay
mIDH1 catalyzes the NADPH-dependent reduction of alpha-ketoglutarate (α-KG) to (2R)-2-hydroxyglutarate (2-HG). NADPH consumption was measured by luminescent readout.
The biochemical reactions were performed at 32° C. in 384-well plates using a reaction volume of 41 μL and the following assay buffer conditions: 50 mM Tris pH 7.5, 100 mM NaCl, 20 mM MgCl2, 0.05% BSA, 0.01% Brij, 1 μM NADPH, and 250 μM α-KG. The IDH1 R132H enzyme was used in a final concentration of 1.5 nM. Test compounds were used in a concentration range between 0.002 and 10 μM. The final DMSO concentration was 2.4%.
The reaction was incubated for 30 minutes, then 40 μL of detection mix (0.75 μg/ml Luciferase, 0.02 U/ml Oxidoreductase, 4 μg/mL FMN, 2 μL/ml decanal/ethanol, 50 mM Tris pH 7.5, 0.5% Glycerin, 0.01% Tween-20, 0.05% BSA) was added. Luminescence was measured on a luminescent reader (10 seconds measuring time, 1 second integration period, 30% sensitivity). The decrease in luminescence is proportional to mIDH1 activity. IC50 values are determined by interpolation from plots of relative luminescence versus inhibitor concentration.

Sequence of IDH1 R132H enzyme (O75874 whole entry R132H): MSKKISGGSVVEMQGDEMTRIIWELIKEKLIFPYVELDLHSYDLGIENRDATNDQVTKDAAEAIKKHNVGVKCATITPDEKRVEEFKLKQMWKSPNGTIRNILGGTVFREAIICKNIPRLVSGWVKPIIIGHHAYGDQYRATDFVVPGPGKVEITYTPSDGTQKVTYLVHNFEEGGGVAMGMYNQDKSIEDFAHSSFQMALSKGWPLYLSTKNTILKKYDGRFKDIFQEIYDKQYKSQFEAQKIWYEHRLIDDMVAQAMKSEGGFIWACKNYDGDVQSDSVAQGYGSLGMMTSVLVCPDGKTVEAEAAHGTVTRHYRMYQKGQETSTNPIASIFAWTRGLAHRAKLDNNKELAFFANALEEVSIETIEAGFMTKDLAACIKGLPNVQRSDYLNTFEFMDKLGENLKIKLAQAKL

SMILES	pIC50
COc1cc2c(cc1CO)nc(Nc1ccc(OC(F)(F)F)cc1)n2[C@H]1C[C@@H](C)CC(C)(C)C1 (racemic) [Example 2-6, (±) (6-methoxy-2-{[4-(trifluoromethoxy)phenyl]amino}-1-[(cis)-3,3,5-trimethylcyclohexyl]-1H-benzimidazol-5-yl)methanol]	7.70
COc1cc2c(cc1C(C)(C)O)nc(Nc1ccc(OC(F)(F)F)cc1)n2[C@H]1C[C@@H](C)CC(C)(C)C1 (racemic) [Example 2-7, (±) 2-(6-methoxy-2-{[4-(trifluoromethoxy)phenyl]amino}-1-[(cis)-3,3,5-trimethylcyclohexyl]-1H-benzimidazol-5-yl)propan-2-ol]	7.70
Cc1cc2c(cc1CC(C)(C)O)nc(Nc1ccc(OC(F)(F)F)cc1)n2[C@H]1C[C@@H](C)CC(C)(C)C1 (racemic) [Example 2-8, (±) 2-methyl-1-(6-methyl-2-{[4-(trifluoromethoxy)phenyl]amino}-1-[(cis)-3,3,5-trimethylcyclohexyl]-1H-benzimidazol-5-yl)propan-2-ol]	7.52
COc1cc2c(cc1CC(C)(C)O)nc(Nc1ccc(OC(F)(F)F)cc1)n2[C@H]1C[C@@H](C)CC(C)(C)C1 (racemic) [Example 2-9, (±) 1-(6-methoxy-2-{[4-(trifluoromethoxy)phenyl]amino}-1-[(cis)-3,3,5-trimethylcyclohexyl]-1H-benzimidazol-5-yl)-2-methylpropan-2-ol]	7.70
C[C@@H]1C[C@H](n2c(Nc3ccc(OC(F)(F)F)cc3)nc3cc(CC(C)(C)O)c(F)cc32)CC(C)(C)C1 (racemic) [Example 2-10, (±) 1-(6-fluoro-2-{[4-(trifluoromethoxy)phenyl]amino}-1-[(cis)-3,3,5-trimethylcyclohexyl]-1H-benzimidazol-5-yl)-2-methylpropan-2-ol]	6.62
Cc1cc2c(cc1C(C)(C)O)nc(Nc1ccc(OC(F)(F)F)cc1)n2[C@H]1C[C@@H](C)CC(C)(C)C1 (single isomer, unassigned; enantiomer a) [Example 2-3-1, 2-(6-methyl-2-{[4-(trifluoromethoxy)phenyl]amino}-1-[(cis)-3,3,5-trimethylcyclohexyl]-1H-benzimidazol-5-yl)propan-2-ol, enantiomer A]	7.10
Cc1cc2c(cc1CC(C)(C)O)nc(Nc1ccc(OC(F)(F)F)cc1)n2[C@H]1C[C@@H](C)CC(C)(C)C1 (single isomer, unassigned; enantiomer a) [Example 2-8-1, 2-methyl-1-(6-methyl-2-{[4-(trifluoromethoxy)phenyl]amino}-1-[(cis)-3,3,5-trimethylcyclohexyl]-1H-benzimidazol-5-yl)propan-2-ol, enantiomer A]	6.92
COc1cc2c(cc1CC(C)(C)O)nc(Nc1ccc(OC(F)(F)F)cc1)n2[C@H]1C[C@@H](C)CC(C)(C)C1 (single isomer, unassigned; enantiomer a) [Example 2-9-1, 1-(6-methoxy-2-{[4-(trifluoromethoxy)phenyl]amino}-1-[(cis)-3,3,5-trimethylcyclohexyl]-1H-benzimidazol-5-yl)-2-methylpropan-2-ol, enantiomer A]	7.52
C[C@@H]1C[C@H](n2c(Nc3ccc(OC(F)(F)F)cc3)nc3cc(CC(C)(C)O)c(F)cc32)CC(C)(C)C1 (single isomer, unassigned; enantiomer a) [Example 2-10-1, 1-(6-fluoro-2-{[4-(trifluoromethoxy)phenyl]amino}-1-[(cis)-3,3,5-trimethylcyclohexyl]-1H-benzimidazol-5-yl)-2-methylpropan-2-ol, enantiomer A]	6.49
C[C@@H]1C[C@H](n2c(Nc3ccc(OC(F)(F)F)cc3)nc3cc(CCC(C)(C)O)ccc32)CC(C)(C)C1 (single isomer, unassigned; enantiomer a) [Example 2-11-1, 2-methyl-4-(2-{[4-(trifluoromethoxy)phenyl]amino}-1-[(cis)-3,3,5-trimethylcyclohexyl]-1H-benzimidazol-5-yl)butan-2-ol, enantiomer A]	6.68
COc1cc2c(cc1CCC(C)(C)O)nc(Nc1ccc(OC(F)(F)F)cc1)n2[C@H]1C[C@@H](C)CC(C)(C)C1 (single isomer, unassigned; enantiomer a) [Example 2-12-1, 4-(6-methoxy-2-{[4-(trifluoromethoxy)phenyl]amino}-1-[(cis)-3,3,5-trimethylcyclohexyl]-1H-benzimidazol-5-yl)-2-methylbutan-2-ol, enantiomer A]	7.30
C[C@@H]1C[C@H](n2c(Nc3ccc(OC(F)(F)F)cc3)nc3cc(CO)ccc32)CC(C)(C)C1 (single isomer, unassigned; enantiomer b) [Example 2-1-2, (2-{[4-(trifluoromethoxy)phenyl]amino}-1-[(cis)-3,3,5-trimethylcyclohexyl]-1H-benzimidazol-5-yl)methanol, enantiomer B]	7.15
Cc1cc2c(cc1C(C)(C)O)nc(Nc1ccc(OC(F)(F)F)cc1)n2[C@H]1C[C@@H](C)CC(C)(C)C1 (single isomer, unassigned; enantiomer b) [Example 2-3-2, 2-(6-methyl-2-{[4-(trifluoromethoxy)phenyl]amino}-1-[(cis)-3,3,5-trimethylcyclohexyl]-1H-benzimidazol-5-yl)propan-2-ol, enantiomer B]	7.70
Cc1cc2c(cc1CC(C)(C)O)nc(Nc1ccc(OC(F)(F)F)cc1)n2[C@H]1C[C@@H](C)CC(C)(C)C1 (single isomer, unassigned; enantiomer b) [Example 2-8-2, 2-methyl-1-(6-methyl-2-{[4-(trifluoromethoxy)phenyl]amino}-1-[(cis)-3,3,5-trimethylcyclohexyl]-1H-benzimidazol-5-yl)propan-2-ol, enantiomer B]	8.00
COc1cc2c(cc1CC(C)(C)O)nc(Nc1ccc(OC(F)(F)F)cc1)n2[C@H]1C[C@@H](C)CC(C)(C)C1 (single isomer, unassigned; enantiomer b) [Example 2-9-2, 1-(6-methoxy-2-{[4-(trifluoromethoxy)phenyl]amino}-1-[(cis)-3,3,5-trimethylcyclohexyl]-1H-benzimidazol-5-yl)-2-methylpropan-2-ol, enantiomer B]	8.00
COc1cc2c(cc1CCC(C)(C)O)nc(Nc1ccc(OC(F)(F)F)cc1)n2[C@H]1C[C@@H](C)CC(C)(C)C1 (single isomer, unassigned; enantiomer b) [Example 2-12-2, 4-(6-methoxy-2-{[4-(trifluoromethoxy)phenyl]amino}-1-[(cis)-3,3,5-trimethylcyclohexyl]-1H-benzimidazol-5-yl)-2-methylbutan-2-ol, enantiomer B]	8.00
CC(C)[C@@H]1CC[C@@H](C)C[C@H]1n1c(Nc2ccc(OC(F)(F)F)cc2)nc2cc(C(C)(C)O)ccc21 [Example 2-13, 2-(1-[(1R,2S,5R)-2-isopropyl-5-methylcyclohexyl]-2-{[4-(trifluoromethoxy)phenyl]-amino}-1H-benzimidazol-5-yl)propan-2-ol]	7.10
CC(C)c1ccc(Nc2nc3cc(C(C)(C)O)ccc3n2[C@@H]2C[C@H](C)CC[C@H]2C(C)C)cc1 [Example 2-14, 2-{1-[(1R,2S,5R)-2-isopropyl-5-methylcyclohexyl]-2-[(4-isopropyl-phenyl)amino]-1H-benzimidazol-5-yl}propan-2-ol]	6.92
CC(C)[C@@H]1CC[C@@H](C)C[C@H]1n1c(Nc2ccc(OC(F)(F)F)cc2)nc2cc(CC(C)(C)O)ccc21 [Example 2-15, 1-(1-[(1R,2S,5R)-2-isopropyl-5-methylcyclohexyl]-2-{[4-(trifluoro-methoxy)phenyl]amino}-1H-benz-imidazol-5-yl)-2-methylpropan-2-ol]	7.40
CC(C)c1ccc(Nc2nc3cc(CC(C)(C)O)ccc3n2[C@@H]2C[C@H](C)CC[C@H]2C(C)C)cc1 [Example 2-16, 1-{1-[(1R,2S,5R)-2-isopropyl-5-methylcyclohexyl]-2-[(4-isopropyl-phenyl)amino]-1H-benzimidazol-5-yl}-2-methylpropan-2-ol]	7.22
CC(C)Oc1ccc(Nc2nc3cc(CC(C)(C)O)ccc3n2[C@@H]2C[C@H](C)CC[C@H]2C(C)C)cc1 [Example 2-17, 1-{2-[(4-isopropoxyphenyl)amino]-1-[(1R,2S,5R)-2-isopropyl-5-methylcyclohexyl]-1H-benz-imidazol-5-yl}-2-methylpropan-2-ol]	6.80
CC(C)[C@@H]1CC[C@@H](C)C[C@H]1n1c(Nc2ccc(OC(F)(F)F)cc2)nc2cc(CCC(C)(C)O)ccc21 [Example 2-18, 4-(1-[(1R,2S,5R)-2-isopropyl-5-methylcyclohexyl]-2-{[4-(trifluoro-methoxy)phenyl]amino}-1H-benz-imidazol-5-yl)-2-methylbutan-2-ol]	7.00
CC(C)c1ccc(Nc2nc3cc(CCC(C)(C)O)ccc3n2[C@@H]2C[C@H](C)CC[C@H]2C(C)C)cc1 [Example 2-19, 4-{1-[(1R,2S,5R)-2-isopropyl-5-methylcyclohexyl]-2-[(4-isopropyl-phenyl)amino]-1H-benzimidazol-5-yl}-2-methylbutan-2-ol]	6.54
CC(C)Oc1ccc(Nc2nc3cc(CCC(C)(C)O)ccc3n2[C@@H]2C[C@H](C)CC[C@H]2C(C)C)cc1 [Example 2-20, 4-{2-[(4-isopropoxyphenyl)amino]-1-[(1R,2S,5R)-2-isopropyl-5-methylcyclohexyl]-1H-benzimidazol-5-yl}-2-methylbutan-2-ol]	6.52
